This note sets out measurements from paper PMC10484922, “Discovery of a selective and biologically active low-molecular weight antagonist of human interleukin-1β” (Nature Communications, 2023).

“And” between values parts separate entries of the source, which are not always exact repeats. Identical values can stand only once. Like-named read-outs stand apart in the source and are kept apart here. A value given as a limit tells only on which side of the number the result lay.

Test [1] deals with T1, IL-1β (Homo sapiens, UniProt P01584). The experiment in a line: TR-FRET IL-1β/hIL-1R1 receptor displacement assay. Type of test: biochemical. As to conditions: read-out: TR-FRET IL-1β IC50. How it is done:
After 1 h incubation at room temperature, hIL-1R1 (1–332; Alexa 647 labeled; 50 nM final concentration) and anti-His-Europium W1024 (Perkin Elmer; Cat.No. AD0401, 1 nM final concentration) were added to a final volume of 10 μl per well. […] All experiments were run in triplicates.

A further test concerns the target T2, IL-1α (Homo sapiens, UniProt P01583).
T2 sequence (P01583 113-271): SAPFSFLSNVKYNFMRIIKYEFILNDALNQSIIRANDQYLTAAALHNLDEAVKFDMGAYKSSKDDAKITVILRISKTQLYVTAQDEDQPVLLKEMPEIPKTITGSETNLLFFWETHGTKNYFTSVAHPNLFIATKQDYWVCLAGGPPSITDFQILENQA
The experiment in a line: TR-FRET IL-1α/hIL-1R1 receptor displacement assay. Type of test: biochemical. As to conditions: read-out: TR-FRET IL-1α IC50. How it is done:
After 1 h incubation at room temperature, hIL-1R1 (1–332; Alexa 647 labeled; 50 nM final concentration) and anti-His-Europium W1024 (Perkin Elmer; Cat.No. AD0401, 1 nM final concentration) were added to a final volume of 10 μl per well. After 1 h of incubation at room temperature, time-resolved fluorescence was measured at λexc = 320 ± 20 nm, λem = 620 ± 25 nm/665 ± 25 nm using a Pherastar FSX plate reader. All experiments were run in triplicates. The data provided a typical saturation-binding curve, and the IC50 values were calculated by fitting the results to the Hill equation using Prism 7.0 and the in-house software Helios.

Test [2] deals with T1, IL-1β. Put plainly: protein-observed 1H-13C-HMQC NMR binding (I/Io of Leu60 Cδ1H3). Further details: Mature hIL-1β was expressed in Escherichia coli; made in house; host or cells: Escherichia coli BL21 (DE3), pET17b. The conditions noted are these: hIL-1β 50 µM, 500 µM compound. How it is done:
^1H–^13C- and ^1H–^15N-HMQC spectra were recorded on Bruker AVANCE 600 MHz and 800 MHz spectrometers equipped with TXI-cryocooled probeheads. In ligand binding experiments, protein concentrations were typically 50 μM in PBS, pH 7.4. Backbone assignments of hIL-1β in the ligand-bound state and unliganded state were obtained by a combination of a 3D triple resonance experiment HNCACB and a ^15N-edited NOESY spectrum, which were processed using TOPSPIN 3.2 and analyzed using CcpNmr AnalysisAssign 3.1.0[46]. ^15N-CEST experiments were run at weak B1 radiofrequency fields of 25 and 12.5 Hz on a Bruker AVANCE 800 MHz spectrometer with 113 increments and a total sweep width of 28 ppm in the pseudo-3D dimension. Peak intensities were extracted by fitting pseudo-Voigt lineshape models using peakipy (https://github.com/j-brady/peakipy). Fitted peak intensities were subsequently used to generate CEST profiles, and exchange parameters were fitted using ChemEx (https://github.com/gbouvignies/ChemEx).
Supplementary Figure 2. 13C-NMR and 19F-NMR reporter assays to monitor early
13C-HMQC spectra of hIL-1b (50 µM) were acquired in the presence (red) and absence (blue) of 500
µM compound and rows were extracted at the w1-frequency of the peak corresponding to Leu60 […]

Test [3] addresses T1, IL-1β. Put plainly: 19F-reporter displacement assay with (S)-1 as probe. Type of test: binding. Set-up: Mature hIL-1β was expressed in Escherichia coli; made in house; host or cells: Escherichia coli BL21 (DE3), pET17b. How it is done:
Protein and reporter concentrations were 10 and 40 μM, respectively. To account for changes in sample homogeneity, samples contained 1-(2,2,2-trifluoroacetyl)piperidine-4-carboxylic acid as an internal reference for scaling signal intensities. Three concentrations of the competitor were typically measured, and the related displacement of the probe was converted into Ki-values according to Dalvit and Vulpetti[17]. […] This process was automated with FRPipe, an in-house developed Python script (https://github.com/Novartis/FRPipe) that allows for streamlined analysis of such experiments. […] For visual inspection, an overview containing relevant ^19F peaks, fitting curves, and proton spectra was plotted.
Supplementary Figure 2. 13C-NMR and 19F-NMR reporter assays to monitor early structure activity relationships of analogues of 1. a, b Early structure activity relationships monitored by protein-observed and c-f 19F-NMR reporter assays, exemplified for compound 8. a 1H-13C-HMQC spectra of hIL-1b (50 µM) were acquired in the presence (red) and absence (blue) of 500 µM compound and rows were extracted at the w1-frequency of the peak corresponding to Leu60 Cd1H3. b The degree of protein binding was estimated from the ratio I/I0, where I and I0 correspond to the signal in the presence and absence of compound, respectively. c For the assessment of the KI-values, the signal intensity of a reporter molecule (S)-1 was monitored in 19F-transverse relaxation experiments run in the absence and presence of increasing amounts of compound. d All intensities were scaled to the intensity of an internal standard (all signals in panel c and d are shifted on the X-axis for clarity). e KI-values were retrieved from theoretical binding curves calculated for each compound concentration8. f One-dimensional 1H-NMR spectra were recorded for each assay mixture to assess the structural integrity and solubility of the compound in the sample.
(1 picture or pasted object on this page, not shown here)

Test [4] concerns the target T1, IL-1β. Put plainly: SPR binding of compounds to immobilized hIL-1β. Set-up: Mature hIL-1β was expressed in Escherichia coli; made in house; host or cells: Escherichia coli BL21 (DE3), pET17b. How it is done: All SPR experiments were performed with an SPR-32 instrument (Bruker Daltonics SPR, Hamburg, Germany). SPR chips were from XanTec bioanalytics GmbH (Düsseldorf, Germany).
C-terminally avi-tagged hIL-1β protein was immobilized onto a SAHC200M chip with a neutravidin-coated surface. Immobilization was performed with a protein injection of 0.02 mg/ml IL-1β diluted in PBS pH 7.5 (Gibco 70011-036, 10×), 0.05% Tween-20 for 5 min at 10 μl/min. The running buffer for binding studies of compounds was PBS pH 7.4, 0.05% Tween-20, and 2% DMSO. For the correction of small DMSO variations between samples, injections of 6 solvent samples ranging from 1% to 3% DMSO were run. Compound measurements were performed in MICK mode (multiple injection cycles kinetic) with a dose–response of 10 concentrations. Dissociation constants for compounds (KD) were obtained by determining steady-state fit that followed the 1:1 Langmuir model.
Data analysis was performed with the Sierra Analyzer 3.4.0 software from Bruker. Signal intensities were corrected for nonspecific binding to the surface by subtracting intensities from the reference surface from those of the hIL-1β surfaces (first reference subtraction) and by subtracting the buffer injection (second reference subtraction). KD values were carried out by determining a reporting point close to the end of the injection, used for steady-state fit, in addition to a kinetic fit delivering kon- and koff-values; both fitting models followed the 1:1 Langmuir equation.
Supplementary Figure 3. De termination of binding af fi nit ie s for se l ec ted ana l ogues of 1 by SPR. a - d Gr ap hs of exemplary experimen ts are given , where the sat urat ion of hI L-1b immobil ized on a chip was monitored at various concentrations of compound 3, 12, 10, and 11, respectively. Th e saturati on reached at equ ilibri um (insert) was plo tt ed versus the admini stered concentration and the equ ilibri um bin ding constant was derived from a non-li near lea st square fitting routine. e equ ilibri um and f kinetic bin ding of (S)-2 to IL-1b (kon = 1. 15 x 105 M-1 s-1 and koff = 0. 12 s-1).

The next test addresses T3, hIL-1R1 (Homo sapiens, UniProt P14778).
T3 construct: the cell suspension containing the mature Interleukin-1R1(21–337)-His6 was centrifuged; made in house; host or cells: HEK-ExpiGnti- cells (transient, secreted)
T3 sequence (P14778 21-337): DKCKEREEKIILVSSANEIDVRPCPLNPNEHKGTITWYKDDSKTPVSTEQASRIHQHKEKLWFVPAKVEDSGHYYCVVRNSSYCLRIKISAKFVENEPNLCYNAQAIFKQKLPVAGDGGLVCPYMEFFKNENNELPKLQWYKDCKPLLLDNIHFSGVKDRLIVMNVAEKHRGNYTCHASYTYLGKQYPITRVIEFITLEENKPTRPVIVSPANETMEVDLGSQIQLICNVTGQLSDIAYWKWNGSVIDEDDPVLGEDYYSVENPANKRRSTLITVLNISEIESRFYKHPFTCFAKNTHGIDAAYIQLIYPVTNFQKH
The experiment in a line: SPR binding of IL-1β and V47A variant to immobilized IL-1R1. The conditions noted are these: source data, read-out: SPR binding to IL-1R1, individual experiments (Exp1-3). How it is done: The receptor IL-1R1 was covalently immobilized to the chip surface of a CMD50L sensor by amine coupling. The coupling reagents (EDC/NHS and ethanolamine) were from Bruker. 1× PBS pH 7.5 (Gibco 70011-036, 10×), 0.05 % Tween-20 was used as running buffer. The chip surface was activated with a 3 min injection of EDC/NHS (200 mM 1-ethyl-3-(3-dimethylaminopropyl)-carbodiimide hydrochloride, 25 mM N-hydroxysuccinimide), followed by the protein injection of 0.02 mg/ml IL-1R1 diluted in 10 mM sodium acetate pH 5.0 for 3 min at 10 μl/min. The remaining active succinimides on the surface were deactivated by an injection of 1 M ethanolamine hydrochloride pH 8.5 over 3 min at 10 μl/min.
The injection of the protein dilution series was performed with 8 concentrations in SICK mode (single injection cycle kinetic) with a flow rate of 40 μl/min and 2 reference injections with buffer before and after the protein injection.
Data analysis was performed with the Sierra Analyzer 3.4.0 software from Bruker. Signal intensities were corrected for nonspecific binding to the surface by subtracting intensities from the reference surface from those of the hIL-1β surfaces (first reference subtraction) and by subtracting the buffer injection (second reference subtraction). […]
as se ss ed by SPR. Bindi ng of hI L-1b (a, b) and hI L-1bV47A (c, d) to hI L-1R1 monitored by SPR. […]

T1 sequence (P01584 117-269): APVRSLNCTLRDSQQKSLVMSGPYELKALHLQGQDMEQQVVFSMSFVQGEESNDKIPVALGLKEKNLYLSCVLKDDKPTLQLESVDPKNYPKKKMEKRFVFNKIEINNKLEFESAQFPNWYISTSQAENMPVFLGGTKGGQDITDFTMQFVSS

For `Cc1ccc(O)c(C2(c3cn[nH]c3)C(=O)Nc3cc(C(F)(F)F)ccc32)c1` (stereo not shown) [Compound 12], the IC50 at IL-1β [1] and at IL-1α was more than 200 µM in each case. Further, the “I/Io (ratio of peak intensities of Leu60 Cδ1H3 in 1H-13C-HMQC spectra in presence and absence of ligand)” value on IL-1β [2] is given as <0.1 (N = 1). The Ki on IL-1β [3] (protein 10 μM, reporter (S)-1 40 μM, read-out: 19F-reporter Ki) is 90 ± 41 µM; at IL-1β [3] (source data, read-out: 19F-reporter, individual experiments (Exp1-58)), 119 µM and 61 µM. In addition, the Kd was 138 µM on IL-1β [4] (source data, read-out: SPR Kd, Mean); 145 µM and 130 µM on IL-1β [4] (source data, read-out: SPR Kd, individual experiments (Exp1-5)); 138 ± 11 µM on IL-1β [4] (steady-state fit, 1:1 Langmuir, read-out: SPR KD).

Take “hIL-1β: proteolytically processed mature human interleukin-1β, analyte in SPR on IL-1R1”: in the test with hIL-1R1 (listed as wt IL-1beta), the Kd is 0.0039 µM and 0.0024 µM.

Regarding “hIL-1β^V47A: hIL-1β variant with Val47 replaced by Ala”, the Kd with hIL-1R1 (listed as IL-1beta V47A) is 0.0034 µM and 0.0043 µM and 0.004 µM.
